These results are taken from PubChem BioAssay (NCI).

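Step 1: Grow cells in 96-well plates. Step 2: Expose to compound for 48 hours at 5 concentrations. Step 3: Interpolate endpoints linearly; if unreached, use highest concentration. Here, GI50 denotes the concentration required for 50% inhibition of growth. TGI denotes the concentration required for complete inhibition of growth.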

Some test systems named below: ACHN renal; COLO 205 colon; SN12C renal; NCI-H522 lung; SNB-75 CNS; UACC-257 melanoma; NCI-H23 lung; 786-0 renal; RPMI-8226 leukemia; RXF 393 renal.
What all share (experiment): NCI anticancer screen, dose series, 48 h

In the case of `COc1cc2ccn3c4cc(OC)c(OC)cc4cc3c2cc1OC`, the TGI in the experiment with ACHN renal, in the experiment with COLO 205 colon, with SN12C renal, in the experiment on NCI-H522 lung, in the experiment on SNB-75 CNS and with UACC-257 melanoma was greater than 100 µM throughout. Also, the TGI with NCI-H23 lung, with 786-0 renal and in the experiment on RPMI-8226 leukemia was greater than 100 µM in each case.
Take `COc1ccc(C2=CC(c3cc(OC)c(OC)c(OC)c3)n3ncnc3N2)cc1` (stereo not given): the GI50 is 0.152 µM in the experiment on ACHN renal; 0.0335 µM in the experiment with COLO 205 colon; 0.141 µM in the experiment with SN12C renal; 0.0324 µM with NCI-H522 lung; 0.0875 µM in the experiment with NCI-H23 lung; 0.0448 µM with 786-0 renal. The GI50 with RPMI-8226 leukemia was 0.0439 µM. In addition, the TGI in the experiment on ACHN renal was 43.9 µM; with COLO 205 colon, 0.16 µM; in the experiment on SN12C renal it was greater than 100 µM; in the experiment on NCI-H522 lung, 0.654 µM; in the experiment on NCI-H23 lung, 42 µM; in the experiment with 786-0 renal it was greater than 100 µM. Further, the TGI with RPMI-8226 leukemia worked out at 81.3 µM.
On to `Cc1nnc2n1N=C(CC(=O)c1ccc(O)cc1O)CN2N`, for which the TGI was greater than 100 µM in the experiment on RXF 393 renal; greater than 100 µM in the experiment with ACHN renal; 35.8 µM with COLO 205 colon; greater than 100 µM with SN12C renal; greater than 100 µM in the experiment with UACC-257 melanoma; greater than 100 µM in the experiment on NCI-H23 lung. In the experiment on 786-0 renal, this compound came in with a TGI greater than 100 µM.
On to `COc1cc(C(c2cc3c(cc2O)OCO3)N2CCCC2)cc(OC)c1OC` (stereo not given), for which the TGI in the experiment with ACHN renal worked out at 28.8 µM; with COLO 205 colon, 26.5 µM; in the experiment with SN12C renal it was 45.9 µM; with NCI-H522 lung, 11.5 µM; in the experiment on SNB-75 CNS, 32.7 µM; in the experiment on UACC-257 melanoma, 36.6 µM. The TGI in the experiment on NCI-H23 lung came out at 33.1 µM; in the experiment on 786-0 renal it was 28.8 µM; with RPMI-8226 leukemia it was 41.5 µM.
Turning to `Cc1ccc(C2=Nc3c(N)ncnc3NC(c3cccc(Nc4ccnc5cc(C(F)(F)F)ccc45)c3)C2)cc1` (stereo not given), the GI50 was 1.69 µM in the experiment with RXF 393 renal; 4.69 µM in the experiment with ACHN renal; 2.64 µM in the experiment with COLO 205 colon; 4.77 µM in the experiment on SN12C renal; 2.27 µM with NCI-H522 lung; 10.2 µM in the experiment with UACC-257 melanoma. Moreover, the GI50 with NCI-H23 lung was 3.6 µM; in the experiment on 786-0 renal, 3.03 µM; in the experiment on RPMI-8226 leukemia, 2.17 µM. In addition, the TGI was 3.55 µM in the experiment on RXF 393 renal; greater than 100 µM in the experiment with ACHN renal; 7.03 µM in the experiment with COLO 205 colon; greater than 100 µM in the experiment with SN12C renal; 7.51 µM with NCI-H522 lung; 84.9 µM in the experiment with UACC-257 melanoma. The TGI in the experiment on NCI-H23 lung worked out at 16.7 µM; with 786-0 renal, 11.2 µM; with RPMI-8226 leukemia, 6.05 µM.
Consider `Brc1ccc2c(c1)C1(c3cc(Br)ccc3-2)c2cc(Br)ccc2-c2ccc(Br)cc21`, for which the TGI in the experiment with RXF 393 renal, in the experiment on ACHN renal, in the experiment with COLO 205 colon, in the experiment with SN12C renal, in the experiment with NCI-H522 lung and in the experiment with UACC-257 melanoma was greater than 100 µM in each case. The TGI in the experiment on NCI-H23 lung, in the experiment on 786-0 renal and in the experiment on RPMI-8226 leukemia was greater than 100 µM each time.
As for `COc1cc(C2C3=C(COC3=O)N(CCO)c3cc4c(cc32)CCC4)cc(OC)c1O` (stereo not given), the GI50 was 0.0943 µM in the experiment on RXF 393 renal; 0.706 µM with ACHN renal; 0.229 µM in the experiment with COLO 205 colon; 0.499 µM with SN12C renal; 0.0432 µM with NCI-H522 lung; 0.402 µM with NCI-H23 lung. Also, the GI50 with 786-0 renal is 0.77 µM; in the experiment with RPMI-8226 leukemia, 0.838 µM. The TGI was greater than 32.5 µM in the experiment with ACHN renal; 2.16 µM with COLO 205 colon; greater than 32.5 µM in the experiment on SN12C renal; 0.122 µM in the experiment on NCI-H522 lung; greater than 32.5 µM with UACC-257 melanoma; greater than 32.5 µM with NCI-H23 lung. For the same compound, the TGI in the experiment on 786-0 renal is 32 µM; with RPMI-8226 leukemia it was greater than 32.5 µM.
As for `COC(=O)C12CC(C3CC31)C1CC12` (stereo not given), the TGI with ACHN renal, with COLO 205 colon, in the experiment on SN12C renal, with UACC-257 melanoma, in the experiment on NCI-H23 lung and in the experiment with 786-0 renal was greater than 100 µM throughout. For the same compound, in the experiment with RPMI-8226 leukemia, the TGI was greater than 100 µM.
`CCC1OCCN1C(C)C` (stereo not given): the TGI in the experiment with RXF 393 renal, in the experiment on ACHN renal, with COLO 205 colon, in the experiment with SN12C renal, in the experiment on NCI-H522 lung and with UACC-257 melanoma was greater than 100 µM throughout. Moreover, the TGI in the experiment with NCI-H23 lung, with 786-0 renal and in the experiment with RPMI-8226 leukemia was greater than 100 µM each time.
Regarding `COc1c(O)c(OC)c(C(=O)/C=C/c2ccccc2)c(O)c1OC`, the TGI was 58.1 µM in the experiment on ACHN renal; greater than 100 µM in the experiment on COLO 205 colon; 32.6 µM in the experiment with SN12C renal; 31.9 µM in the experiment with NCI-H522 lung; greater than 100 µM in the experiment on SNB-75 CNS; greater than 100 µM with UACC-257 melanoma. Besides, the TGI in the experiment with 786-0 renal and in the experiment with RPMI-8226 leukemia was greater than 100 µM each time.
For `CC(CS(=O)(=O)Cc1ccccc1)C(N)=O` (stereo not given), the TGI in the experiment with ACHN renal, with COLO 205 colon, in the experiment on SN12C renal, in the experiment on NCI-H522 lung, in the experiment on UACC-257 melanoma and with NCI-H23 lung was greater than 100 µM each time. Also, the TGI in the experiment on 786-0 renal and in the experiment with RPMI-8226 leukemia was greater than 100 µM in each case.
Regarding `c1ccc2c(c1)CCCc1cc3ccccc3nc1-2`, the TGI in the experiment with ACHN renal, with COLO 205 colon, in the experiment with SN12C renal, in the experiment on NCI-H522 lung, in the experiment on SNB-75 CNS and in the experiment with UACC-257 melanoma was greater than 100 µM each time. Also, the values for the TGI in the experiment with NCI-H23 lung, with 786-0 renal and in the experiment on RPMI-8226 leukemia were greater than 100 µM, greater than 100 µM and 99.2 µM, respectively.
Turning to `Clc1ccc2c(Cl)ncnc2c1`, the TGI with ACHN renal, in the experiment on COLO 205 colon, in the experiment with SN12C renal, in the experiment with NCI-H522 lung, in the experiment with SNB-75 CNS and with UACC-257 melanoma was greater than 100 µM in each case. For the same compound, the TGI in the experiment with NCI-H23 lung, with 786-0 renal and in the experiment on RPMI-8226 leukemia was greater than 100 µM throughout.
For the compound `COC(=O)C(CC=O)C(=O)C(=O)Nc1cccc(C(F)(F)F)c1` (stereo not given), the TGI in the experiment on RXF 393 renal, in the experiment on ACHN renal, with SN12C renal, in the experiment on NCI-H522 lung, with UACC-257 melanoma and in the experiment on NCI-H23 lung was greater than 100 µM in each case. The TGI with 786-0 renal and with RPMI-8226 leukemia was greater than 100 µM throughout.
